Measurements taken from patent publication US7453000B2, “Substituted oxazolobenzoisothiazole dioxide derivatives method for production and use thereof” (Sanofi-Aventis Deutschland GmbH, priority 2004, dated 2008).

Target: T1, human PTP1B (Homo sapiens, UniProt P18031)
T1 construct: without the carboxy-terminal hydrophobic region (corresponding to 1-299 aa); made in house; host or cells: Sf9 insect cells (Spodoptera frugiperda), baculovirus (Bac-to-Bac, pFASTBAC)
T1 sequence (P18031 1-299): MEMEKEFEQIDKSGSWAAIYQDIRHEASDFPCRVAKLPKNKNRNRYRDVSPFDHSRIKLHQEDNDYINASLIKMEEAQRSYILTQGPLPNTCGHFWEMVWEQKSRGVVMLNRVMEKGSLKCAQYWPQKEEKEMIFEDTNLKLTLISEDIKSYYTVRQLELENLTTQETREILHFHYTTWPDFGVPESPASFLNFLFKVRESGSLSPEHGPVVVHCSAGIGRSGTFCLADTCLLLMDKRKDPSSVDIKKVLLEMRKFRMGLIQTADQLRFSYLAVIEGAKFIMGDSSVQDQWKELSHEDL
Experiment: Enzymatic test system for detecting inhibition of a phosphatase (recombinant hPTP1B; phosphopeptide dephosphorylation / p-nitrophenyl phosphate cleavage)
Assay type: biochemical
Settings: inhibition of recombinant hPTP1B (1-299 aa, expressed in Sf9 cells); Table 2 does not say which substrate procedure (A phosphopeptide or B pNPP)
Protocol: The activity of the compounds was tested as follows:
Enzymatic test systems for detecting inhibition of a phosphatase
The compounds of the formula I were tested for their phosphatase-inhibiting effect in an in vitro assay. The enzyme preparation and the performance of the assay was carried out as follows.
Obtaining the Enzyme Preparation:
• Sf9 cells (=Spodoptera frugiperda cell type; obtainable from invitrogen) are cultured in Grace's supplemented medium (Gibco-BRL) with 10% heat-inactivated fetal calf serum (Gibco-BRL) in spinner flasks at 28° C. in accordance with the protocol of Summers and Smith (A Manual for Methods for Baculoviruns Vectors and Insect Culture Procedures [Bulletin No. 15555]. Texas A & M University, Texas Agricultural Experiment Station, College Station, Tex., 1987). • Construction of recombinant Baculovirus transfer vectors: cDNA coding for the regulatory and catalytic domains of human PTP1B, but without the carboxy-terminal hydrophobic region (corresponding to 1-299 aa) was obtained by polymerase chain reaction via primers with attached cloning sites and suitable cDNA templates (obtainable for example from invitrogen) and then cloned into baculovirus expression vectors (Amersham Pharmacia Biotech.). The recombinant baculoviruses were prepared with the aid of the Bac-to-Bac baculovirus expression system (obtainable from Gibco-BRL). The gene was cloned into the pFASTBAC donor plasmid (obtainable from Life Technologies). The resulting plasmid was transformed into competent DH10BAC Escherichia coli cells (obtainable from Life Technologies). After transposition and antibiotic selection, the recombinant plasmid DNA was isolated from selected E. coli colonies and then used for the transfection of Sf9 insect cells. The virus particle in the supernatant medium was amplified three times up to a viral stock volume of 500 ml. B) Production of Recombinant Protein: • Baculovirus infection of a 500 ml spinner culture of Sf9 cells was essentially carried out as described by Summers and Smith (see above). Sf9 cells at a density of 1-3×10^6 cells/ml were pelleted by centrifugation at 300 g for 5 min, the supernatant was removed, and the cells were resuspended in a density of 1×10^7 cells/ml in a suitable recombinant viral stock (MOI 10). After careful shaking at room temperature for 1.5 h, fresh medium was added in order to achieve a cell density of 1×10^6 cells/ml. The cells were then cultured in suspension at 28° C. for suitable periods after postinfection. C) Cellular Fractionation and Complete Cell Extracts of Infected Sf9 Cells: • After the postinfection, aliquots were subjected to an analysis of protein expression by SDS-PAGE and Western blot analysis. The cellular fractionation was carried out as described (Cromlish, W. and Kennedy, B. Biochem. Pharmacol. 52: 1777-1785, 1996). Complete cell extracts were obtained from 1 ml aliquots of the infected Sf9 cells after certain times postinfection. The pelleted cells (300×g, 5 min) were washed once in phosphate-buffered saline (4° C.), resuspended in 50 μl of water and disrupted by repeated freezing/thawing. Protein concentrations were determined with the aid of the Bradford method and bovine serum albumin as standard. Assay Procedure: A) Dephosphorylation of a Phosphopeptide: • This assay is based on the release of phosphate from a consensus substrate peptide which is detected in the nanomolar concentration range by the malachite green/ammonium molybdate method (Lanzefta, P. A., Alvarez, L. J., Reinach, P. S., Candia, O. A. Anal Biochem. 100: 95-97, 1979) adapted for the microtiter plate format. The dodecatrisphosphopeptide TRDIYETDYYRK (Biotrend, Cologne) corresponds to amino acids 1142-1153 of the catalytic domain of the insulin receptor and is (auto)phosphorylated on tyrosine residues 1146, 1150 and 1151. […]

IC50 | Structure (SMILES)
290 µM | O=C(O)COc1ccc(-c2cnc(Nc3ccc4c(c3)CS(=O)(=O)N4)o2)cc1 [Example 8]
162 µM | O=C(O)c1cc(-c2cnc(Nc3ccc4c(c3)CS(=O)(=O)N4)o2)ccc1O [Example 7]
2.16 µM | O=S1(=O)Cc2cc(Nc3ncc(-c4ccc(-c5ccc(Cl)cc5)cc4)o3)ccc2N1 [Example 5]
9.44 µM | O=S1(=O)Cc2cc(Nc3ncc(-c4ccc(Br)s4)o3)ccc2N1 [Example 6]
6.12 µM | CC(C)(C)c1cc(-c2cnc(Nc3ccc4c(c3)CS(=O)(=O)N4)o2)cc(C(C)(C)C)c1O [Example 4]
12.6 µM | O=S1(=O)Cc2cc(Nc3ncc(-c4cccc(Br)c4)o3)ccc2N1 [Example 2]
7.3 µM | N#Cc1cccc(-c2cnc(Nc3ccc4c(c3)CS(=O)(=O)N4)o2)c1 [Example 1]
15.7 µM | O=S1(=O)Cc2cc(Nc3ncc(-c4ccc(C(F)(F)F)cc4)o3)ccc2N1 [Example 3]
